Measured values published in patent publication US20200155434A1, “SKIN CLEANSING COMPOSITION” (KAO CORPORATION, priority 2017, published 2020).

What was measured:
[1] = at 25° C.; cited from earlier work
[2] = cited from earlier work
[3] = Detergency against keratotic plug during cleansing (penetration and collapse under digital microscope); set-up: species or system human; conditions: Table 1 samples; for Penetration of the sample into keratotic plugs (in words): contact with sample for 1 minute; for Collapse of keratotic plugs in contact with the sample (in words): assumption of cleansing
Description: Keratotic plugs in the nasal region were removed with “Biore Nose Pack (manufactured by Kao Corporation)”, the resulting keratotic plugs on the pack were gently taken out with tweezers.
The resulting keratotic plugs were placed on a slide glass and were covered with a cover glass, and 0.05 mL of a sample was dropwise added to an edge of the cover glass. Consequently, the sample entered into the gap between the slide glass and the cover glass by capillary phenomenon and was brought into contact with the keratotic plugs. The contact of the keratotic plugs and the sample was recorded with a digital microscope (VHX-5000, manufactured by Keyence Corporation, magnification: 150×), and the penetration of the sample into the keratotic plugs and the collapse state of the keratotic plugs were evaluated after one minute from the contact of the keratotic plugs with the sample. The results of each evaluation are shown in the columns “Keratotic plug detergency (penetration)” and “Keratotic plug detergency (during cleansing)” in Tables. The measurements were performed at 25° C.
The penetration was relatively evaluated by criteria with 11 ratings starting from the rating 1 “the sample hardly penetrated into the keratotic plug” to the rating 11 “the sample penetrated to the center of the keratotic plug”. The collapsibility by the detergency against keratotic plug was relatively evaluated by criteria with 11 ratings starting from the rating 1 “almost no change is observed in the external appearance of the keratotic plug” to the rating 11 “peeling or separation is observed in the area from the surface layer to the central portion of the keratotic plug (the initial appearance of the keratotic plug is not retained)”.

[4] = Detergency against keratotic plug after washing with water; set-up: species or system human; conditions: sample substituted with water; Table 1 samples
Description: After one minute from the contact of the keratotic plugs with the sample, Kimwipes (registered trademark) was brought into contact with an edge of the cover glass to remove the sample under the cover glass. Then, 0.05 mL of water was gradually dropwise added to an edge of the cover glass. The sample dropwise-added with water was recorded with the digital microscope, and the collapse state of the keratotic plugs was evaluated after one minute from the contact of the keratotic plugs with water according to the criteria for evaluating collapsibility of the keratotic plugs. The results of the evaluation are shown in the column “Keratotic plug detergency (during washing with water)” in Table. The measurements were performed at 25° C.

[5] = tested on: insoluble protein (seine protein); assay: Effect of suppressing protein aggregation; format: physicochemical; conditions: Table 1 sample
Description: Thirty milliliters of a sample and 0.06 g of an insoluble protein (seine protein) were placed in a 35-mL standard glass bottle, and the concentration of the insoluble protein was adjusted to 0.2 mass % (test sample). Separately, a standard sample was prepared by using water instead of the sample and adjusting the concentration of the insoluble protein to 0.2 mass %. Subsequently, the standard glass bottles were sufficiently shaken and stirred up and down (shake width: 15 cm, 20 times at a rate of 5 times for 3 seconds) in a thermostatic chamber of 25° C. and were left to stand for 3 minutes. The precipitation state of the insoluble protein was then visually verified, and the ratio of the amount of the precipitated standard sample to the amount of the precipitated test sample (the height of the precipitate in each standard glass bottle was measured as the precipitation amount), (precipitation amount of standard sample)/(precipitation amount of test sample), was calculated. A higher ratio indicates a higher effect of suppressing protein aggregation.

CC(C)(N)CO [AMP, 2-amino-2-methyl-1-propanol]
pKa [1]: 9.72
Solubility in water (in words) [2]: readily dissolved in water

CC(N)(CO)CO [AMPD, 2-amino-2-methyl-1,3-propanediol]
pKa [1]: 8.76

NC(CO)(CO)CO [Tris, 2-amino-2-hydroxymethyl-1,3-propanediol]
pKa [1]: 8.03
Penetration of the sample into keratotic plugs (in words) [3]: penetrated into keratotic plugs
Solubility in water (in words) [2]: readily dissolved in water
Collapse of keratotic plugs during washing with water (in words) [4]: further accelerating the collapse of keratotic plugs

O=P([O-])([O-])O.[Na+].[Na+] [disodium hydrogen phosphate]
Collapse of keratotic plugs in contact with the sample (in words) [3]: collapse of the keratotic plugs did not progress
Penetration of the sample into keratotic plugs (in words) [3]: hardly penetrated into keratotic plugs
Collapse of keratotic plugs during washing with water (in words) [4]: collapse of keratotic plugs did not progress

O=C([O-])O.[Na+] [sodium hydrogen carbonate]
Collapse of keratotic plugs in contact with the sample (in words) [3]: collapse of the keratotic plugs did not progress
Penetration of the sample into keratotic plugs (in words) [3]: hardly penetrated into keratotic plugs
Collapse of keratotic plugs during washing with water (in words) [4]: collapse of keratotic plugs did not progress

O=P([O-])([O-])[O-].[Na+].[Na+].[Na+] [trisodium phosphate]
Collapse of keratotic plugs in contact with the sample (in words) [3]: collapse of the keratotic plugs did not progress
Penetration of the sample into keratotic plugs (in words) [3]: hardly penetrated into keratotic plugs
Collapse of keratotic plugs during washing with water (in words) [4]: collapse of keratotic plugs did not progress

sodium polyoxyethylene (2) lauryl ether sulfate [POE (2) sodium lauryl sulfate]
Collapse of keratotic plugs in contact with the sample (in words) [3]: collapse of the keratotic plugs did not progress
Penetration of the sample into keratotic plugs (in words) [3]: hardly penetrated into the keratotic plugs
Action on proteins (in words) [5]: dissolve the proteins
